# Several values for one entry are separate records, joined by “and”; a condition that tells them apart may be missing. Equal values may be shown once. Inconclusive results and toxic doses are left out.
# Test system: L1210 leukemia ip in BDF1 mice, survival T/C
# Assay: NCI In Vivo Anticancer Drug Screen. Data for tumor model L1210 Leukemia (intraperitoneal) in B6D2F1 (BDF1) mice
# Settings: endpoint: mean survival time, higher = longer survival
# Outline: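 Tumor cells were implanted, animals were treated, and survival was followed. The result divides the treated measurement by the vehicle-control measurement.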
# [1] = dose: 100.0 mg/kg/injection, schedule: Q01DX001 (ip), vehicle: saline
# [2] = dose: 200.0 mg/kg/injection, schedule: Q01DX001 (ip), vehicle: saline
# [3] = dose: 400.0 mg/kg/injection, schedule: Q01DX001 (ip), vehicle: saline
# [4] = dose: 50.0 mg/kg/injection, schedule: Q01DX001 (ip), vehicle: saline
# [5] = dose: 100.0 mg/kg/injection, schedule: Q01DX009 (ip), vehicle: saline with Tween-80
# [6] = dose: 200.0 mg/kg/injection, schedule: Q01DX009 (ip), vehicle: saline with Tween-80
# [7] = dose: 100.0 mg/kg/injection, schedule: Q04DX003 (ip), vehicle: saline with Tween-80
# [8] = dose: 200.0 mg/kg/injection, schedule: Q04DX003 (ip), vehicle: saline with Tween-80
# [9] = dose: 400.0 mg/kg/injection, schedule: Q04DX003 (ip), vehicle: saline with Tween-80
# [10] = dose: 100.0 mg/kg/injection, schedule: Q01DX001 (ip), vehicle: saline with Tween-80
# [11] = dose: 200.0 mg/kg/injection, schedule: Q01DX001 (ip), vehicle: saline with Tween-80
# [12] = dose: 400.0 mg/kg/injection, schedule: Q01DX001 (ip), vehicle: saline with Tween-80
# [13] = dose: 100.0 mg/kg/injection, schedule: Q04DX003 (ip), vehicle: Klucel (hydroxypropylcellulose) (HPC)
# [14] = dose: 200.0 mg/kg/injection, schedule: Q04DX003 (ip), vehicle: Klucel (hydroxypropylcellulose) (HPC)
# [15] = dose: 100.0 mg/kg/injection, schedule: Q01DX001 (ip), vehicle: Klucel (hydroxypropylcellulose) (HPC)
smiles,measurement,setting,value
O=C1OC(=O)C2C(c3ccccc3)=CC(c3ccccc3)=CC12 (stereo not given),T/C,[1],98 % of control
same,T/C,[2],107 % of control
same,T/C,[3],102 % of control
Cc1ccc(S(=O)(=O)N(c2cc(C)ccc2C)c2ccccc2N)cc1,T/C,[4],93 % of control
same,T/C,[1],95 % of control
same,T/C,[2],98 % of control
same,T/C,[3],93 % of control
NCc1cccc2ccccc12,T/C,"dose: 62.5 mg/kg/injection, schedule: Q01DX001 (ip), vehicle: saline",109 % of control
same,T/C,[1],112 % of control
same,T/C,"dose: 125.0 mg/kg/injection, schedule: Q01DX001 (ip), vehicle: saline",104 % of control
same,T/C,[2],96 % of control
CN(C)C(=S)SCCC(N)C(=O)O (stereo not given),T/C,"dose: 50.0 mg/kg/injection, schedule: Q01DX009 (ip), vehicle: saline with Tween-80",90 % of control
same,T/C,[5],101 % of control
same,T/C,[6],96 % of control
CC(C)(CC(=O)O)CC(=O)OCC(=O)[C@@]1(O)CC[C@H]2[C@@H]3CCC4=CC(=O)C=C[C@]4(C)[C@H]3[C@@H](O)C[C@@]21C,T/C,"dose: 20.0 mg/kg/injection, schedule: Q01DX009 (ip), vehicle: steriod suspending solution",103 % of control
same,T/C,"dose: 40.0 mg/kg/injection, schedule: Q01DX009 (ip), vehicle: steriod suspending solution",103 % of control
same,T/C,"dose: 50.0 mg/kg/injection, schedule: Q01DX001 (sc), vehicle: steriod suspending solution",102 % of control
same,T/C,"dose: 80.0 mg/kg/injection, schedule: Q01DX009 (ip), vehicle: steriod suspending solution",111 % of control
same,T/C,"dose: 100.0 mg/kg/injection, schedule: Q01DX001 (sc), vehicle: steriod suspending solution",100 % of control
same,T/C,"dose: 100.0 mg/kg/injection, schedule: Q01DX009 (sc), vehicle: steriod suspending solution",93 % of control
same,T/C,"dose: 100.0 mg/kg/injection, schedule: Q04DX003 (sc), vehicle: steriod suspending solution",98 % of control
same,T/C,"dose: 200.0 mg/kg/injection, schedule: Q01DX001 (sc), vehicle: steriod suspending solution",113 % of control
same,T/C,"dose: 200.0 mg/kg/injection, schedule: Q01DX009 (sc), vehicle: steriod suspending solution",104 % of control and 118 % of control
same,T/C,"dose: 200.0 mg/kg/injection, schedule: Q04DX003 (sc), vehicle: steriod suspending solution",110 % of control
same,T/C,"dose: 400.0 mg/kg/injection, schedule: Q01DX001 (sc), vehicle: steriod suspending solution",107 % of control
same,T/C,"dose: 400.0 mg/kg/injection, schedule: Q01DX009 (sc), vehicle: steriod suspending solution",102 % of control and 124 % of control
same,T/C,"dose: 400.0 mg/kg/injection, schedule: Q04DX003 (sc), vehicle: steriod suspending solution",104 % of control
O=Cc1[nH]c(=S)[nH]c(=O)c1Cc1ccc([N+](=O)[O-])cc1,T/C,[7],93 % of control
same,T/C,[8],92 % of control
same,T/C,[9],100 % of control
CCCN(C)/N=N/c1[nH]ncc1C(N)=O,T/C,"dose: 66.0 mg/kg/injection, schedule: Q01DX009 (ip), vehicle: saline with Tween-80",178 % of control
same,T/C,[10],113 % of control
same,T/C,[5],188 % of control
same,T/C,[11],115 % of control
same,T/C,[6],120 % of control
same,T/C,[8],116 % of control
same,T/C,[12],109 % of control
same,T/C,[9],94 % of control
C=CCc1ccccc1NC(=O)NCCCl,T/C,"dose: 50.0 mg/kg/injection, schedule: Q01DX009 (ip), vehicle: Klucel (hydroxypropylcellulose) (HPC)",106 % of control
same,T/C,"dose: 100.0 mg/kg/injection, schedule: Q01DX009 (ip), vehicle: Klucel (hydroxypropylcellulose) (HPC)",100 % of control
same,T/C,[13],93 % of control
same,T/C,"dose: 200.0 mg/kg/injection, schedule: Q01DX009 (ip), vehicle: Klucel (hydroxypropylcellulose) (HPC)",111 % of control
same,T/C,[14],104 % of control
NC(=O)NC1CCCC1,T/C,[7],93 % of control
same,T/C,[8],89 % of control
same,T/C,[9],93 % of control
Nc1nc2nnc(-c3ccccc3)c(-c3ccccc3)n2n1,T/C,[15],93 % of control
same,T/C,[13],96 % of control
same,T/C,"dose: 200.0 mg/kg/injection, schedule: Q01DX001 (ip), vehicle: Klucel (hydroxypropylcellulose) (HPC)",93 % of control
same,T/C,[14],101 % of control
same,T/C,"dose: 400.0 mg/kg/injection, schedule: Q01DX001 (ip), vehicle: Klucel (hydroxypropylcellulose) (HPC)",92 % of control
same,T/C,"dose: 400.0 mg/kg/injection, schedule: Q04DX003 (ip), vehicle: Klucel (hydroxypropylcellulose) (HPC)",91 % of control
ClC(Cl)(Cl)c1ccn(-c2ccccc2)n1,T/C,"dose: 25.0 mg/kg/injection, schedule: Q01DX001 (ip), vehicle: Klucel (hydroxypropylcellulose) (HPC)",110 % of control
same,T/C,"dose: 50.0 mg/kg/injection, schedule: Q01DX001 (ip), vehicle: Klucel (hydroxypropylcellulose) (HPC)",100 % of control
same,T/C,[15],101 % of control and 110 % of control
O=C(c1ccccc1)C(O)(CC(c1ccccc1)[P+](c1ccccc1)(c1ccccc1)c1ccccc1)c1ccccc1 (stereo not given),T/C,"dose: 1.75 mg/kg/injection, schedule: Q01DX009 (ip), vehicle: saline",93 % of control
same,T/C,"dose: 3.5 mg/kg/injection, schedule: Q01DX009 (ip), vehicle: saline",93 % of control
same,T/C,"dose: 6.25 mg/kg/injection, schedule: Q01DX009 (ip), vehicle: Klucel (hydroxypropylcellulose) (HPC)",102 % of control
same,T/C,"dose: 12.5 mg/kg/injection, schedule: Q01DX009 (ip), vehicle: Klucel (hydroxypropylcellulose) (HPC)",107 % of control
same,T/C,[12],87 % of control
O=C(O)CCCc1ccc2sc3ccccc3c2c1,T/C,[10],100 % of control
same,T/C,[11],101 % of control
O=c1/c(=C\c2ccccc2)sc2n1CCN=2,T/C,[1],89 % of control
same,T/C,[2],92 % of control
same,T/C,[3],101 % of control
CC1CN1P1(=O)OCC(C)([N+](=O)[O-])CO1 (stereo not given),T/C,"dose: 50.0 mg/kg/injection, schedule: Q01DX001 (ip), vehicle: carboxymethylcellulose (CMC)",106 % of control
same,T/C,"dose: 100.0 mg/kg/injection, schedule: Q01DX001 (ip), vehicle: carboxymethylcellulose (CMC)",110 % of control
same,T/C,"dose: 200.0 mg/kg/injection, schedule: Q01DX001 (ip), vehicle: carboxymethylcellulose (CMC)",104 % of control
same,T/C,"dose: 400.0 mg/kg/injection, schedule: Q01DX001 (ip), vehicle: carboxymethylcellulose (CMC)",112 % of control
CCOc1ccc(NC(=O)N(O)C2(C#N)CCCCC2)cc1,T/C,"dose: 100.0 mg/kg/injection, schedule: Q01DX001 (ip), vehicle: other",93 % of control
same,T/C,"dose: 200.0 mg/kg/injection, schedule: Q01DX001 (ip), vehicle: other",96 % of control
same,T/C,"dose: 400.0 mg/kg/injection, schedule: Q01DX001 (ip), vehicle: other",93 % of control
CC1B(O)Nc2nc(=S)[nH]c(N)c21 (stereo not given),T/C,"dose: 100.0 mg/kg/injection, schedule: Q04DX003 (ip), vehicle: saline sonified",104 % of control
same,T/C,"dose: 200.0 mg/kg/injection, schedule: Q04DX003 (ip), vehicle: saline sonified",103 % of control
ClCc1ccc2ccc3cccc4ccc1c2c34,T/C,"dose: 5.0 mg/kg/injection, schedule: Q01DX009 (ip), vehicle: carboxymethylcellulose (CMC)",109 % of control
same,T/C,"dose: 10.0 mg/kg/injection, schedule: Q01DX009 (ip), vehicle: carboxymethylcellulose (CMC)",110 % of control
same,T/C,"dose: 12.5 mg/kg/injection, schedule: Q01DX009 (ip), vehicle: carboxymethylcellulose (CMC)",109 % of control
same,T/C,"dose: 20.0 mg/kg/injection, schedule: Q01DX009 (ip), vehicle: carboxymethylcellulose (CMC)",121 % of control
same,T/C,"dose: 25.0 mg/kg/injection, schedule: Q01DX009 (ip), vehicle: carboxymethylcellulose (CMC)",97 % of control
CS(=O)(=O)OCCN(CCOS(C)(=O)=O)c1cccc([N+](=O)[O-])c1,T/C,"dose: 1.0 mg/kg/injection, schedule: Q01DX001 (ip), vehicle: saline",101 % of control
same,T/C,"dose: 2.0 mg/kg/injection, schedule: Q01DX001 (ip), vehicle: saline",101 % of control
same,T/C,"dose: 4.0 mg/kg/injection, schedule: Q01DX001 (ip), vehicle: saline",101 % of control
same,T/C,"dose: 8.0 mg/kg/injection, schedule: Q01DX001 (ip), vehicle: saline",102 % of control
same,T/C,"dose: 152.0 mg/kg/injection, schedule: Q01DX001 (ip), vehicle: saline",113 % of control
same,T/C,"dose: 228.0 mg/kg/injection, schedule: Q01DX015 (ip), vehicle: saline",118 % of control
same,T/C,"dose: 342.0 mg/kg/injection, schedule: Q01DX001 (ip), vehicle: saline",95 % of control
same,T/C,"dose: 342.0 mg/kg/injection, schedule: Q01DX015 (ip), vehicle: saline",92 % of control
same,T/C,"dose: 1024.0 mg/kg/injection, schedule: Q01DX001 (ip), vehicle: saline",102 % of control
CCOc1c(CNC(=O)CCl)cc(N)cc1CNC(=O)CCl,T/C,[4],106 % of control
same,T/C,[1],111 % of control

# Source: PubChem BioAssay AID248 (DTP/NCI, 2004)
